Measurements as given in patent US9339523B2, “Estrogenic extracts of Asparagus conchinchinensis (Lour.) Merr of the Liliaceae family and uses thereof” (BIONOVO, INC., priority 2007, dated 2016).
Values belong to the compound of their own block, whether it stands above or below them.

Columns and labels:
[1] = five years of therapy; cited from earlier work
[2] = system: TNF-RE tkLuc; assay: TNF-RE tkLuc reporter, ERα and ERβ not separated (Example 2); assay type: cell-based, human; settings: for activation of TNF-RE tkLuc: antiestrogens, in contrast to E2
Experimental: Plasmid Construction. […] ERβ mutants were created with QuikChange site-directed mutagenesis kits (Stratagene), by using oligonucleotides containing the mutation. The mutants were sequenced with Sequenase kits (Amersham Pharmacia) to verify the presence of the mutation.
(§1) For experiments, cells were collected, transferred to a cuvette, and then electroporated with a Bio-Rad gene pulser as described previously using 3 μg of reporter plasmid and 1 μg of ERα or ERβ expression vectors. After electroporation, the cells were resuspended in media and plated at 1 ml/dish in 12-well multiplates. […] The concentration of hormone required to produce a half-maximal induction (EC50) or inhibition (IC50) of luciferase activity was calculated with the Prism curve-fitting program (Graph Pad Software, version 2.0b). […] The cells were plated in duplicate at a density of 25,000 cells/35-mm plate in tissue culture medium containing 3% stripped fetal bovine serum. […] After 8 days the cells were counted with a Coulter counter.

[3] = women at high risk for breast cancer; cited from earlier work
[4] = target: T1, ERβ (Homo sapiens, UniProt Q92731); assay: ERE-tk-Luc luciferase assay in U2OS cells with ERβ; assay type: cell-based; parameters: expressed in transfected cells; host or cells: U2OS (human osteosarcoma); settings: competition with the extract, FIG. 6
Experimental: as §1
(§2) The extracts (a and b) were than decanted and only the soluble material was used.

[5] = target: T1, ERβ; assay: TNF-RE tkLuc repression in U2OS cells with ERβ; assay type: cell-based; parameters: expressed in transfected cells; host or cells: U2OS (A10)
Experimental: as §1, §2

T1 sequence (Q92731 whole entry): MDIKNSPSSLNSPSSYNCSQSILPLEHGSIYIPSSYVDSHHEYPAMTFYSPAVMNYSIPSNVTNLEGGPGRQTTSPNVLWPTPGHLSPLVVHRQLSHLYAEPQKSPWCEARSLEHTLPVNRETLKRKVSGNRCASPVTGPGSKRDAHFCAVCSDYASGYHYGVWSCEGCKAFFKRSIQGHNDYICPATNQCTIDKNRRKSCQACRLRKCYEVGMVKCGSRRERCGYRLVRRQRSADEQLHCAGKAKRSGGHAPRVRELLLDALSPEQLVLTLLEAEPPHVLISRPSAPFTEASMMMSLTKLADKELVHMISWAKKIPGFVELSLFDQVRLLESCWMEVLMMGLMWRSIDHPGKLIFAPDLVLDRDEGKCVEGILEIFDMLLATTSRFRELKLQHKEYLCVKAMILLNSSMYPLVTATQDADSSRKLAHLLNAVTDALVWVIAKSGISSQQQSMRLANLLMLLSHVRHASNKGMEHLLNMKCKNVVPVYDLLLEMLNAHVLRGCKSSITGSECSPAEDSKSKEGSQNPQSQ

Compound: CC/C(=C(\c1ccccc1)c1ccc(OCCN(C)C)cc1)c1ccccc1 [tamoxifen]
- reduction of mortality from breast cancer [1]: 22%
- reduction of the risk of recurrences [1]: 42%
- effect on the repression induced by E2 ([2]; TNF-RE tkLuc): abolished the repression induced by E2
- activation of TNF-RE tkLuc [2]: 2 fold
- reduction of the risk of primary invasive breast cancer [3]: 49%

- effect on the extract's stimulation of the ERE with ERβ [4]: is inhibited
Compound: O=C(c1ccc(OCCN2CCCCC2)cc1)c1c(-c2ccc(O)cc2)sc2cc(O)ccc12 [raloxifene]
- effect on the repression induced by E2 ([2]; TNF-RE tkLuc): abolished the repression induced by E2
- activation of TNF-RE tkLuc [2]: 2 fold

Compound: TNF-α
- activation of 3 copies of the TNF-RE (−125 to −82) upstream of the tk promoter ([2]; TNF-RE tkLuc): 5-10 fold

Compound: C[C@]12CC[C@@H]3c4ccc(O)cc4C[C@@H](CCCCCCCCC[S+]([O-])CCCC(F)(F)C(F)(F)F)[C@H]3[C@@H]1CC[C@@H]2O (stereo partly shown) [ICI 182, 780]
- effect on the repression induced by E2 ([2]; TNF-RE tkLuc): abolished the repression induced by E2
- activation of TNF-RE tkLuc [2]: 2 fold

- repression of TNF-α activation of TNF-RE [5]: 100%
Compound: C[C@]12CC[C@@H]3c4ccc(O)cc4CC[C@H]3[C@@H]1CC[C@@H]2O [E2, estradiol]
- repression of TNF-α activation of TNF-RE tkLuc ([2]; in the presence of ERα and ERβ): 60-80%
